Data taken from US7598234B2, “Steroid derived antibiotics” (Brigham Young University, priority 1998, dated 2009).
In brackets after ≈: the same amount, converted by molar mass.

Key:
[1] = tested on: E. coli (ATCC 10798); assay: Sensitization to erythromycin (concentration lowering the MIC of erythromycin), E. coli (ATCC 10798); format: cell-based, Escherichia coli; conditions: Table 2, E. coli (ATCC 10798)
Description: (§1) Alternatively, “fractional inhibitory concentration (FIC)” is also useful for determination of synergy between the compounds of the invention, or the compounds in combination with known antibiotics. FICs can be performed by checkerboard titrations of compounds in one dimension of a microtiter plate, and of antibiotics in the other dimension, for example. The FIC is calculated by looking at the impact of one antibiotic on the MIC of the other and vice versa. […] Preferably, an FIC of less than 0.5 is obtained for synergism. As used herein, FIC can be determined as follows:
(§2) Aliquots of 1 mL of the suspension were added to test tubes containing 1 mL TSB and incrementally varied concentrations of cholic acid derivatives and/or erythromycin or novobiocin. In the sensitization experiments, erythromycin or novobiocin were added 15 minutes later than the cholic acid derivatives. The samples were subjected to stationary incubation at 37° C. for 24 hours. Sample turbidity was determined by measuring absorption at 760 nm (HP 8453 UV-Visible Chemstation, Hewlett Packard). Additionally, an alliquot from each of the samples showing no measurable turbidity was subcultured on TSA plates (alliquots were diluted to provide fewer than 300 CFU). Colonies that grew on the subculture after overnight incubation were counted and the number of CFU/mL in the samples were calculated. The calculated values were compared to the number of CFU/mL in the original inoculum.
(§3) Ability to permeabilize outer membrane: Compounds 11, 106, and 108-114 (FIG. 1) were tested for antibiotic activity. They were also tested for the ability to permeabilize the outer membrane of Gram-negative bacteria, causing sensitization to hydrophobic antibiotics that cannot cross the outer membrane. The permeabilization of the outer membrane was measured using erythromycin and novobiocin.
(§4) The MICs of erythromycin and novobiocin against E. coli (ATCC 10798) at 70 and >500 μg/mL were measured.

[2] = tested on: E. coli (ATCC 25922); assay: MIC and MBC measurement with E. coli (ATCC 25922); format: cell-based, Escherichia coli
From the text: (§5) General: Microorganisms. Reference strains were purchased from the American Type Culture Collection (Rockville, Md.) or Bactrol disks from Difeo Laboratories (Detroit, Mich.). The following specific ATCC strains were used: 10798 Escherichia coli, 25922 Escherichia coli, 13883 Klebsiella pneumoniae, 27853 Pseudomonas aeruginosa, 14028 Salmonella typhimurium, 29212 Enterococcus faecalis, 25923 Staphylococcus aureus, 19615 Streptococcus pyogenes, and 90028 Candida albicans. Bacterial strains were maintained on Mueller-Hinton agar plates, and Candida albicans was maintained on Sabouraud Dextrose agar plates.
(§6) Tryptic soy broth (TSB) was made by dissolving 27.5 grams of tryptic soy broth without dextrose (DIFCO Laboratories) in 1 liter of deionized water and sterilizing at 121° C. for 15 minutes. Solid agar (TSA) plates were made by dissolving 6.4 grams of tryptic soy broth and 12 grams of agar (purified grade, Fischer Scientific) in 800 mL of deionized water and sterilizing at 121° C. for 20 minutes. Aliquots (20 mL) of the homogeneous solution were then poured in sterile plastic petri dishes (100×15 mm, Fisher Scientific). Solutions of compounds were made by dissolving the HCl salt of the respective compound into an appropriate amount of deionized and sterilized water followed by microfiltration.
as §2, with “inoculum. […]” for “inoculum.”

[3] = tested on: Pseudomonas aeruginosa (ATCC 27853); assay: MIC and MBC measurement with Pseudomonas aeruginosa (ATCC 27853); format: cell-based
From the text: as §5, §6, §2

[4] = tested on: E. coli (ATCC 10798); assay: Sensitization to novobiocin (concentration lowering the MIC of novobiocin), E. coli (ATCC 10798); format: cell-based, Escherichia coli; conditions: Table 3, E. coli (ATCC 10798)
Description: as §1, §2, §3, §4

[5] = tested on: E. coli (ATCC 25922); assay: Sensitization to erythromycin, E. coli (ATCC 25922); format: cell-based, Escherichia coli; conditions: for FIC / concentration required to inhibit bacterial growth with antibiotic: Table 11, Escherichia coli ATCC 25922; for FIC: erythromycin (by order); for concentration required to inhibit bacterial growth with antibiotic: erythromycin (by order) at 0.5, 1.0 or 3.0 μg/mL
Description: FICs can be performed by checkerboard titrations of compounds in one dimension of a microtiter plate, and of antibiotics in the other dimension, for example. The FIC is calculated by looking at the impact of one antibiotic on the MIC of the other and vice versa. […] Preferably, an FIC of less than 0.5 is obtained for synergism. As used herein, FIC can be determined as follows:
as §2
Concentrations of 0.5, 1.0 or 3.0 μg/mL of these antibiotics were used, and the concentrations of the cholic acid derivatives required to inhibit bacterial growth of Gram-negative strains were determined.
(§7) Minimum inhibition concentrations (MIC) and minimum hemolytic concentrations (MHC) were measured as described in Li et al., Antimicrob. Agents. Chemother., 1999, 43, 1347.

[6] = tested on: E. coli (ATCC 10798); assay: MIC and MBC measurement with E. coli (ATCC 10798); format: cell-based, Escherichia coli; conditions: for MIC (in words): FIG. 5, strain not named
From the text: as §5, §6, §2

[7] = tested on: Pseudomonas aeruginosa (ATCC 27853); assay: Sensitization to erythromycin, Pseudomonas aeruginosa (ATCC 27853); format: cell-based; conditions: for FIC / concentration required to inhibit bacterial growth with antibiotic: Table 11, Pseudomonas aeruginosa ATCC 27853; for FIC: erythromycin (by order); for concentration required to inhibit bacterial growth with antibiotic: erythromycin (by order) at 0.5, 1.0 or 3.0 μg/mL
Description: as §1
as §2, with “inoculum. […]” for “inoculum.”
(§8) To measure permeabilization, the FIC values for compounds 1, 2, 5, 106, 10, 112, 133, and 134 with erythromycin, novobiocin, and rifampicin were determined. Concentrations of 0.5, 1.0 or 3.0 μg/mL of these antibiotics were used, and the concentrations of the cholic acid derivatives required to inhibit bacterial growth of Gram-negative strains were determined.

[8] = tested on: Pseudomonas aeruginosa (ATCC 27853); assay: Sensitization to novobiocin, Pseudomonas aeruginosa (ATCC 27853); format: cell-based; conditions: Table 8; P. aureginosa (ATCC 27853)
Description: as §1
as §2, with “inoculum. […]” for “inoculum.”
as §8

[9] = tested on: Candida albicans ATCC 90028; assay: MIC and MBC measurement with Candida albicans ATCC 90028; format: cell-based; conditions: Table 10
From the text: as §5, §6, §2

[10] = tested on: Enterococcus faecalis ATCC 29212; assay: MIC and MBC measurement with Enterococcus faecalis ATCC 29212; format: cell-based; conditions: Table 10
From the text: as §5, §6, §2

[11] = tested on: Streptococcus pyrogenes ATCC 19615; assay: MIC and MBC measurement with Streptococcus pyogenes ATCC 19615; format: cell-based; conditions: Table 10
From the text: as §5, §6, §2

[12] = tested on: Staphylococcus aureus ATCC 25923; assay: MIC and MBC measurement with Staphylococcus aureus ATCC 25923; format: cell-based; conditions: Table 10; Staphylococcus aureus ATCC 25923
From the text: as §5, §6
as §2, with “inoculum. […]” for “inoculum.”

[13] = tested on: Salmonella typhimurium ATCC 14028; assay: MIC and MBC measurement with Salmonella typhimurium ATCC 14028; format: cell-based; conditions: Table 10
From the text: as §5, §6, §2

[14] = tested on: Klebsiella pneumonia ATCC 13883; assay: MIC and MBC measurement with Klebsiella pneumoniae ATCC 13883; format: cell-based; conditions: Table 10
From the text: as §5, §6, §2

[15] = Description: as §7
[16] = Table 6, P. aureginosa (ATCC 27853)
[17] = Table 10, Escherichia coli ATCC 25922
[18] = Table 10, Pseudomonas aeruginosa ATCC 27853

SMILES | MBC [9] | MIC [9] | MBC [2, 17] | MIC [2, 17] | MBC [3, 18] | MIC [3, 18] | MBC [10] | MIC [10] | FIC [5] | concentration required to inhibit bacterial growth with antibiotic [5] | MBC [11] | MIC [11] | MBC [12] | MIC [12] | MIC (in words) [6] | FIC [7] | concentration required to inhibit bacterial growth with antibiotic [7] | MBC [13] | MIC [13] | MBC [14] | also measured
C[C@H](CCCN(C)Cc1ccccc1)[C@H]1CC[C@H]2[C@@H]3[C@H](OCCNC(=N)N)C[C@@H]4C[C@H](OCCNC(=N)N)CC[C@]4(C)[C@H]3C[C@H](OCCNC(=N)N)[C@]12C [Compound 4] |  |  |  |  |  |  |  |  |  |  |  |  |  |  |  |  |  |  |  |  | MIC: concentration required to lower the MIC of erythromycin from 70 μg/mL to 1 μg/mL [1]: 1.5 µg/mL; MBC (with erythromycin) ([1]; erythromycin sensitization): 10 µg/mL; MBC ([2]; Table 4, E. coli (ATCC 25922)): 9 µg/mL (≈ 12 µM); MIC ([2]; Table 4, E. coli (ATCC 25922)): 6 µg/mL (≈ 7.97 µM); MBC [3, 16]: 40 µg/mL (≈ 53.1 µM); MIC [3, 16]: 15 µg/mL (≈ 19.9 µM); MIC: concentration required to lower the MIC of novobiocin from >500 μg/mL to 1 μg/mL [4]: 5 µg/mL; MBC (with novobiocin) ([4]; novobiocin sensitization): 10 µg/mL; MIC: concentration required to lower the MIC of erythromycin from 60 μg/mL to 1 μg/mL ([5]; Table 5, E. coli (ATCC 25922)): 1 µg/mL; MBC (with erythromycin) ([5]; Table 5, E. coli (ATCC 25922), erythromycin sensitization): 5 µg/mL; MBC ([6]; Table 1, E. coli (ATCC 10798)): 10 µg/mL (≈ 13.3 µM); MIC ([6]; Table 1, E. coli (ATCC 10798)): 5 µg/mL (≈ 6.64 µM); MIC: concentration required to lower the MIC of erythromycin from 240 μg/mL to 5 μg/mL ([7]; Table 7, P. aureginosa (ATCC 27853)): 5 µg/mL; MBC (with erythromycin) ([7]; Table 7, P. aureginosa (ATCC 27853), erythromycin sensitization): 40 µg/mL; MIC: concentration required to lower the MIC of novobiocin from >500 μg/mL to 1 μg/mL [8]: 6 µg/mL
CCCCCCCCNCCC[C@@H](C)[C@H]1CC[C@H]2[C@@H]3[C@H](OCCCN)C[C@@H]4C[C@H](OCCCN)CC[C@]4(C)[C@H]3C[C@H](OCCCN)[C@]12C [Compound 133] | 45 µg/mL (≈ 66.5 µM) | 31 µg/mL (≈ 45.8 µM) | 3.0 µg/mL (≈ 4.43 µM) | 3.0 µg/mL (≈ 4.43 µM) | 3.2 µg/mL (≈ 4.73 µM) | 2.0 µg/mL (≈ 2.95 µM) | 5.5 µg/mL (≈ 8.12 µM) | 3.1 µg/mL (≈ 4.58 µM) | 0.42 | 1.2 µg/mL | 2.9 µg/mL (≈ 4.28 µM) | 2.3 µg/mL (≈ 3.4 µM) | 2.0 µg/mL (≈ 2.95 µM) | 0.4 µg/mL (≈ 0.591 µM) | very low | 0.21 | 0.35 µg/mL | 6.7 µg/mL (≈ 9.89 µM) | 2.6 µg/mL (≈ 3.84 µM) | 5.8 µg/mL (≈ 8.57 µM) | MIC [14]: 2.6 µg/mL (≈ 3.84 µM); MHC [15]: 29 µg/mL
CCCCCCCCNCCC[C@@H](C)[C@H]1CC[C@H]2[C@@H]3[C@H](OCCCNC(=N)N)C[C@@H]4C[C@H](OCCCNC(=N)N)CC[C@]4(C)[C@H]3C[C@H](OCCCNC(=N)N)[C@]12C [Compound 134] | 76 µg/mL (≈ 94.6 µM) | 53 µg/mL (≈ 66 µM) | 0.37 µg/mL (≈ 0.461 µM) | 0.31 µg/mL (≈ 0.386 µM) | 2.9 µg/mL (≈ 3.61 µM) | 2.0 µg/mL (≈ 2.49 µM) | 5.8 µg/mL (≈ 7.22 µM) | 3.0 µg/mL (≈ 3.73 µM) | 0.36 | 0.37 µg/mL | 3.5 µg/mL (≈ 4.36 µM) | 3.5 µg/mL (≈ 4.36 µM) | 1.4 µg/mL (≈ 1.74 µM) | 0.59 µg/mL (≈ 0.735 µM) | very low | 0.42 | 0.70 µg/mL | 1.8 µg/mL (≈ 2.24 µM) | 0.81 µg/mL (≈ 1.01 µM) | 3.0 µg/mL (≈ 3.73 µM) | MIC [14]: 0.84 µg/mL (≈ 1.05 µM); MHC [15]: 9.0 µg/mL
